Laboratory results from patent US10202389B2, “Pyrazolopyrimidinyl inhibitors of ubiquitin-activating enzyme” (Millennium Pharmaceuticals, Inc., priority 2012, dated 2019).

Target: recombinant human UAE (Homo sapiens (Human), UniProt P22314)
Experiment: Ubiquitin Activating Enzyme (UAE) HTRF Assay
Settings: read-out: % inhibition @0.111 μM
Experimental: After incubation for 120 minutes, quantification of the FRET is performed on the Pherostar (BMG).
For compounds whose values are marked with an asterisk (*), mouse UAE was used. For all other compounds, human UAE was used.

Sequence of recombinant human UAE (P22314 whole entry): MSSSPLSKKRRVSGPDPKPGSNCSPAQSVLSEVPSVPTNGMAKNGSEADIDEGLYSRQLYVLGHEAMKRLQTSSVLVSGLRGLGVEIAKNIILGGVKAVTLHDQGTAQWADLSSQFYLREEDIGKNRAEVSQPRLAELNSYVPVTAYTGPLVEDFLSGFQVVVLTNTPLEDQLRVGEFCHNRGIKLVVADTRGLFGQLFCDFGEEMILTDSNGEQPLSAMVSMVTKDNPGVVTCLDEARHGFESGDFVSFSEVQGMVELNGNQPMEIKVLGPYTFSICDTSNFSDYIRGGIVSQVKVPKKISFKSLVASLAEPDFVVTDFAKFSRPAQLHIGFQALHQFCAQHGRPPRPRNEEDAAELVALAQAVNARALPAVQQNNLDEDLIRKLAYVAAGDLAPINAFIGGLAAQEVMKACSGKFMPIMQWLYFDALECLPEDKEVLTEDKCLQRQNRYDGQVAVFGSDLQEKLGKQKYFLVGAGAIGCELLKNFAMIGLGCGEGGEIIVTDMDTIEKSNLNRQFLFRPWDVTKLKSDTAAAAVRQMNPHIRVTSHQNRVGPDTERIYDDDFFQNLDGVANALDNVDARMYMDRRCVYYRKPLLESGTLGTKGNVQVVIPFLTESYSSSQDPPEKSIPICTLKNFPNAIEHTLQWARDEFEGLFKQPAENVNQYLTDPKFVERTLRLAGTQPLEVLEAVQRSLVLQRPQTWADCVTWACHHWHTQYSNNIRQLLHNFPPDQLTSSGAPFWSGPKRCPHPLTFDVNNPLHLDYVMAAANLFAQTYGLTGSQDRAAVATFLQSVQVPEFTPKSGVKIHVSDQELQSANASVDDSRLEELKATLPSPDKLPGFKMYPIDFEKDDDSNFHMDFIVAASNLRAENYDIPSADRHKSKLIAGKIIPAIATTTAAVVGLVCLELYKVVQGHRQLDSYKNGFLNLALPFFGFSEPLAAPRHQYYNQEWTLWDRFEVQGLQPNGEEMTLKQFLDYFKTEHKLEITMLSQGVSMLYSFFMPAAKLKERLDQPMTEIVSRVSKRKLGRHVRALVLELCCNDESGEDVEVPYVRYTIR

Row | SMILES | inhibition at 0.111 µM [%]
1 | NS(=O)(=O)OC[C@H]1C[C@@H](Nc2ccnc3cc(-c4cccc(SC(F)(F)F)c4)nn23)[C@H](O)[C@@H]1O (relative stereo) [Compound I-044, (rac)-((1R,2R,3S,4R)-2,3-dihydroxy-4-(2-(3-(trifluoromethylthio)phenyl)pyrazolo[1,5-a]pyrimidin-7-ylamino)cyclopentyl)methyl rel-sulfamate] | 100
2 | COc1ccc(C(F)(F)F)cc1-c1cc2nccc(N[C@@H]3C[C@H](COS(N)(=O)=O)[C@@H](O)[C@H]3O)n2n1 (relative stereo) [Compound I-065, (rac)-((1R,2R,3S,4R)-2,3-Dihydroxy-4-((2-(2-methoxy-5-(trifluoromethyl)phenyl)-pyrazolo[1,5-a]pyrimidin-7-yl)amino)cyclopentyl)methyl rel-sulfamate] | 100
3 | COc1ccc(C(C)(C)C)cc1-c1cc2nccc(N[C@@H]3C[C@H](COS(N)(=O)=O)[C@@H](O)[C@H]3O)n2n1 (relative stereo) [Compound I-063, (rac)-((1R,2R,3S,4R)-4-{[2-(5-tert-butyl-2-methoxyphenyl)pyrazolo[1,5-a]pyrimidin-7-yl]amino}-2,3-dihydroxycyclopentyl)methyl rel-sulfamate] | 100
4 | NS(=O)(=O)OC[C@H]1C[C@@H](Nc2ccnc3cc(-c4cc(C(F)(F)F)ccc4F)nn23)[C@H](O)[C@@H]1O (relative stereo) [Compound I-029, (rac)-((1R,2R,3S,4R)-4-((2-(2-Fluoro-5-(trifluoromethyl)phenyl)pyrazolo[1,5-a]pyrimidin-7-yl)amino)-2,3-dihydroxycyclopentyl)methyl rel-sulfamate] | 100
5 | NS(=O)(=O)OC[C@H]1C[C@@H](Nc2c(Cl)cnc3c(Cl)c(-c4cccc(SC(F)(F)F)c4)nn23)[C@H](O)[C@@H]1O [Compound I-124, (s.e.)-{(1R,2R,3S,4R)-4-[(3,6-dichloro-2-{3-[(trifluoromethyl)sulfanyl]phenyl}pyrazolo[1,5-a]pyrimidin-7-yl)amino]-2,3-dihydroxycyclopentyl}methyl sulfamate] | 20
6 | NS(=O)(=O)OC[C@H]1C[C@@H](Nc2ccnc3cc(-c4csc5ccccc45)nn23)[C@H](O)[C@@H]1O (relative stereo) [Compound I-022, (rac)-((1R,2R,3S,4R)-4-(2-(benzo[b]thiophen-3-yl)pyrazolo[1,5-a]pyrimidin-7-ylamino)-2,3-dihydroxycyclopentyl)methyl rel-sulfamate] | 100
7 | NS(=O)(=O)OC[C@H]1C[C@@H](Nc2ccnc3cc(-c4nc(-c5ccccc5)cs4)nn23)[C@H](O)[C@@H]1O (relative stereo) [Compound I-031, (rac)-[(1R,2R,3S,4R)-2,3-dihydroxy-4-{[2-(4-phenyl-1,3-thiazol-2-yl)pyrazolo[1,5-a]pyrimidin-7-yl]amino}cyclopentyl]methyl rel-sulfamate] | 100
8 | Cc1ccc(-c2cc3nccc(N[C@@H]4C[C@H](COS(N)(=O)=O)[C@@H](O)[C@H]4O)n3n2)c2ccccc12 [Compound I-115, (s.e.)-((1R,2R,3S,4R)-2,3-dihydroxy-4-(2-(4-methylnaphthalen-1-yl)pyrazolo[1,5-a]pyrimidin-7-ylamino)cyclopentyl)methyl sulfamate] | 100
9 | COc1ccccc1-c1cc2nccc(N[C@@H]3C[C@H](COS(N)(=O)=O)[C@@H](O)[C@H]3O)n2n1 (relative stereo) [Compound I-072, (rac)-((1R,2R,3S,4R)-2,3-dihydroxy-4-(2-(2-methoxyphenyl)pyrazolo[1,5-a]pyrimidin-7-ylamino)cyclopentyl)methyl rel-sulfamate] | 100
10 | NS(=O)(=O)OC[C@H]1C[C@@H](Nc2ccnc3cc(-c4ccc5c(c4)[nH]c4ccccc45)nn23)[C@H](O)[C@@H]1O (relative stereo) [Compound I-062, (rac)-[(1R,2R,3S,4R)-4-{[2-(9H-carbazol-2-yl)pyrazolo[1,5-a]pyrimidin-7-yl]amino}-2,3-dihydroxycyclopentyl]methyl rel-sulfamate] | 100
11 | NS(=O)(=O)OC[C@H]1C[C@@H](Nc2ccnc3cc(-c4ccc(Cl)cc4Cl)nn23)[C@H](O)[C@@H]1O (relative stereo) [Compound I-013, (rac)-[(1R,2R,3S,4R)-4-{[2-(2,4-dichlorophenyl)pyrazolo[1,5-a]pyrimidin-7-yl]amino}-2,3-dihydroxycyclopentyl]methyl rel-sulfamate] | 84
12 | NS(=O)(=O)OC[C@H]1C[C@@H](Nc2ccnc3cc(-c4c(OC(F)F)ccc5ccccc45)nn23)[C@H](O)[C@@H]1O [Compound I-110, (s.e.)-((1R,2R,3S,4R)-4-(2-(2-(difluoromethoxy)naphthalen-1-yl)pyrazolo[1,5-a]pyrimidin-7-ylamino)-2,3-dihydroxycyclopentyl)methyl sulfamate] | 100
13 | NS(=O)(=O)OC[C@H]1C[C@@H](Nc2ccnc3cc(-c4cccc(SC(F)(F)F)c4)nn23)[C@H](O)[C@@H]1O [Compound I-101, (s.e.)-((1R,2R,3S,4R)-2,3-dihydroxy-4-(2-(3-(trifluoromethylthio)phenyl)pyrazolo[1,5-a]pyrimidin-7-ylamino)cyclopentyl)methyl sulfamate] | 99
14 | NS(=O)(=O)OC[C@H]1C[C@@H](Nc2ccnc3cc(-c4cccc(C5CCCC5)c4)nn23)[C@H](O)[C@@H]1O (relative stereo) [Compound I-048, (rac)-[(1R,2R,3S,4R)-4-{[2-(3-cyclopentylphenyl)pyrazolo[1,5-a]pyrimidin-7-yl]amino}-2,3-dihydroxycyclopentyl]methyl rel-sulfamate] | 100
15 | NS(=O)(=O)OC[C@H]1C[C@@H](Nc2ccnc3cc(-c4cccc(Oc5ccccc5)c4)nn23)[C@H](O)[C@@H]1O (relative stereo) [Compound I-051, (rac)-((1R,2R,3S,4R)-2,3-Dihydroxy-4-((2-(3-phenoxyphenyl)pyrazolo[1,5-a]pyrimidin-7-yl)amino)cyclopentyl)methyl rel-sulfamate] | 90
16 | CC(C)(C)c1cccc(-c2cc3nccc(N[C@@H]4C[C@H](COS(N)(=O)=O)[C@@H](O)[C@H]4O)n3n2)n1 (relative stereo) [Compound I-052, (rac)-((1R,2R,3S,4R)-4-(2-(6-tert-butylpyridin-2-yl)pyrazolo[1,5-a]pyrimidin-7-ylamino)-2,3-dihydroxycyclopentyl)methyl rel-sulfamate] | 100
17 | NS(=O)(=O)OC[C@H]1C[C@@H](Nc2ccnc3cc(-c4cccc(OC(F)F)c4)nn23)[C@H](O)[C@@H]1O (relative stereo) [Compound I-050, (rac)-((1R,2R,3S,4R)-4-((2-(3-(Difluoromethoxy)phenyl)pyrazolo[1,5-a]pyrimidin-7-yl)amino)-2,3-dihydroxycyclopentyl)methyl rel-sulfamate] | 100
18 | NS(=O)(=O)OC[C@H]1C[C@@H](Nc2ccnc3cc(-c4cccc5c4oc4ccccc45)nn23)[C@H](O)[C@@H]1O (relative stereo) [Compound I-010, (rac)-((1R,2R,3S,4R)-4-(2-(dibenzo[b,d]furan-4-yl)pyrazolo[1,5-a]pyrimidin-7-ylamino)-2,3-dihydroxycyclopentyl)methyl rel-sulfamate] | 100
19 | CC(CO)(CCl)c1cccc(-c2cc3nccc(N[C@@H]4C[C@H](COS(N)(=O)=O)[C@@H](O)[C@H]4O)n3n2)c1 (relative stereo) [Compound I-123, (rac)-{(1R,2R,3S,4R)-4-[(2-{3-[2-chloro-1-(hydroxymethyl)-1-methylethyl]phenyl}pyrazolo[1,5-a]pyrimidin-7-yl)amino]-2,3-dihydroxycyclopentyl}methyl rel-sulfamate] | 100
20 | NS(=O)(=O)OC[C@H]1C[C@@H](Nc2ccnc3cc(-c4cccc(N5CCOCC5)c4)nn23)[C@H](O)[C@@H]1O (relative stereo) [Compound I-078, (rac)-((1R,2R,3S,4R)-2,3-dihydroxy-4-(2-(3-morpholinophenyl)pyrazolo[1,5-a]pyrimidin-7-ylamino)cyclopentyl)methyl rel-sulfamate] | 100
21 | NS(=O)(=O)OC[C@H]1C[C@@H](Nc2ccnc3cc(-c4ccc5cc(F)ccc5c4)nn23)[C@H](O)[C@@H]1O [Compound I-113, (s.e.)-((1R,2R,3S,4R)-4-(2-(6-fluoronaphthalen-2-yl)pyrazolo[1,5-a]pyrimidin-7-ylamino)-2,3-dihydroxycyclopentyl)methyl sulfamate] | 100
22 | NS(=O)(=O)OC[C@H]1C[C@@H](Nc2ccnc3cc(-c4cccc(C(F)(F)F)c4)nn23)[C@H](O)[C@@H]1O (relative stereo) [Compound I-007, (rac)-((1R,2R,3S,4R)-2,3-Dihydroxy-4-((2-(3-(trifluoromethyl)phenyl)pyrazolo[1,5-a]pyrimidin-7-yl)amino)cyclopentyl)methyl rel-sulfamate] | 99
23 | NS(=O)(=O)OC[C@H]1C[C@@H](Nc2ccnc3cc(-c4ccc5c(c4)C(=O)c4ccccc4-5)nn23)[C@H](O)[C@@H]1O (relative stereo) [Compound I-085, (rac)-((1R,2R,3S,4R)-2,3-dihydroxy-4-(2-(9-oxo-9H-fluoren-2-yl)pyrazolo[1,5-a]pyrimidin-7-ylamino)cyclopentyl)methyl rel-sulfamate] | 99
24 | NS(=O)(=O)OC[C@H]1C[C@@H](Nc2ccnc3cc(-c4cccc(N5CCCC5)c4)nn23)[C@H](O)[C@@H]1O (relative stereo) [Compound I-046, (rac)-((1R,2R,3S,4R)-2,3-dihydroxy-4-(2-(3-(pyrrolidin-1-yl)phenyl)pyrazolo[1,5-a]pyrimidin-7-ylamino)cyclopentyl)methyl rel-sulfamate] | 100
25 | NS(=O)(=O)OC[C@H]1C[C@@H](Nc2ccnc3cc(-c4cc5ccccc5[nH]4)nn23)[C@H](O)[C@@H]1O (relative stereo) [Compound I-024, (rac)-((1R,2R,3S,4R)-4-(2-(1H-indol-2-yl)pyrazolo[1,5-a]pyrimidin-7-ylamino)-2,3-dihydroxycyclopentyl)methyl rel-sulfamate] | 98
